The record followed here is patent US9974776B2, “Estrogen receptor beta agonists for use in treating mesothelioma” (Karo Pharma AB, priority 2013, dated 2018).

Like-named read-outs stand apart in the source and are kept apart here.

One test relates to REN cells. The experiment in a line: Proliferation assay (Trypan blue viable cell count; wash-off and add-on experiments) in REN cells. The note with it: concentrations used in Example 2(a), said in b159 to be the respective IC50 concentrations, read-out: IC50 concentration in REN cells. The class given is cell-based, human. The method, then: (§1) Cells were seeded at a density of 10×10^4 cells/well in 6-well plates in RPMI medium supplemented with 10% FBS, 100 μg/ml streptomycin and 10 μg/ml penicillin and incubated over-night at 37° C. in a humidified environment containing 5% CO2 to allow adherence. Following treatment cells were trypsinized and stained with Trypan blue. The number of cells considered viable (unstained cells) was counted in a Bürker haemocytometer within 5 minutes after staining.
Control cultures were maintained in normal growth medium without added drug. The number of viable cells was determined as described for the proliferation assay.
In the add-on experiments the second drug was added directly to the cell culture medium without wash-off of the first drug. […] Control cultures were maintained in normal growth medium without added drug. The number of viable cells was determined as described for the proliferation assay.

A further test concerns MET5A cells. The experiment in a line: Proliferation assay in non-malignant mesothelial MET5A cells. The note with it: 24 hours treatment. Type of test: cell-based. The method, then: as §1
Cell cultures were pretreated with Compound (I) for 1-16 hours (depending on experiment) followed by wash-off and then replenished with normal growth medium±cisplatin, pemetrexed or cisplatin/pemetrexed. Total incubation time was 24-72 hours (depending on experiment). Control cultures were maintained in normal growth medium without added drug. The number of viable cells was determined as described for the proliferation assay.

The test system of another test is PARP1 cleavage. As to the kind of experiment: Western blot of PARP1 cleavage in REN cells. The class given is cell-based, human. The following applies: agent alone. The method, then:
Cells were extracted with 1% NP-40 lysis buffer (1% NP-40, 150 mM NaCl, 50 mM Tris-HCl pH 8.5 mM EDTA, 10 mM NaF, 10 mM Na4P2O7, 0.4 mM Na3VO4) with freshly added protease inhibitors (10 μg/ml leupeptin, 4 μg/ml pepstatin and 0.1 Unit/ml aprotinin). For protein extraction from tissues, ˜100 mg of each sample were homogenized, using a Potter-Elvehjem homogenizer device, in 1% NP-40 lysis buffer. Lysates were centrifuged at 13.000×g for 10 minutes at 4° C. and the supernatants were collected and assayed for protein concentration with the Bio-Rad protein assay method.
Proteins were separated by SDS-PAGE under reducing conditions. Following SDS-PAGE, proteins were transferred to nitrocellulose, reacted with specific antibodies and then detected with peroxidase-conjugate secondary antibodies and chemioluminescent ECL reagent. Densitometric analysis was performed using the GS 250 Molecular Image (Bio-Rad).
Levels of PARP1, cleaved PARP1, AKT and phosphorylated AKT in REN cells treated for 24 hours with cisplatin (25, 50 and 100 μM) or pre-treated 2 hours with Compound (I) (10 nM) followed by wash-off and continued growth in normal medium±cisplatin (25, 50 and 100 μM), for an additional 24 hours were also determined by Western blot analysis and relative densitometry. Total AKT and Tubulin staining were used for normalization. PARP1 cleavage was analysed as it is an indicator of apoptotic cell death. As increased AKT activity has been implicated in the control of proliferation, apoptosis and cisplatin resistance (Pinton G., et al, PLoS One (2012) 7:e36856), AKT activation status following different treatments was also analysed.
On the technique in general: In western blotting, separated proteins are transferred to a membrane and probed.

As to `N.N.[Cl][Pt][Cl]` [cisplatin, reference compound], the IC50 was 100 µM in the test with REN cells and 25 µM in the test with MET5A cells. For the same molecule, the “PARP1 cleavage, single agent” value in the test with PARP1 cleavage is listed as “neither cisplatin nor Compound (I) alone resulted in significant PARP1 cleavage”.

With `Nc1nc2[nH]cc(CCc3ccc(C(=O)N[C@@H](CCC(=O)O)C(=O)O)cc3)c2c(=O)[nH]1` [pemetrexed, reference compound], the IC50 in the test with REN cells (Homo sapiens) is 22 µM.
